Assay results as given in publication PMC12442099 (ACS Infectious Diseases, 2025).
In brackets after ≈: the same amount, converted by molar mass.

Key:
[1] = tested on: Rcs stress response in E. coli MC4100 (WT, FQR, GEPR); assay: Rcs stress reporter assay in MC4100 wildtype and resistant mutants; type: cell-based; settings: EC80 concentrations
Source text: Serial passaging of E. coli MC4100 in the presence of increasing concentrations of lomefloxacin or gepotidacin yielded resistant variants of E. coli MC4100. We used MC4100 to raise resistance, because unlike the screening strain TOP10F’, this strain has a functional SOS stress response, which has been implicated in developing resistance against quinolones. Compounds also elicited a robust Rcs stress response in E. coli MC4100, allowing for this strain to be used for stress assays.
4 Rcs stress induced by EC80 concentrations of (A) lomefloxacin, (B) gepotidacin, (C) A2, and (D) B1 in wildtype (WT), fluoroquinolone resistant (FQR) or gepotidacin resistant (GEPR) bacteria. Graphs show the fold change in fluorescence adjusted for bacterial growth as determined by OD600. Error bars indicate the standard deviation of triplicate samples. Data are representative of three independent experiments with similar results. […]
(§1) For lower throughput analysis under laboratory conditions, cultures grown to OD600 of 0.3–0.4 were diluted to a final concnetration of 0.05 OD600 units/mL in black, clear-bottom 96-well plates (Greiner Bio-One B.V.). Plates were incubated in a Biotek HTX or H1 plate reader (Agilent Technologies) at 37 °C with continuous shaking. Kinetic studies were performed by measuring OD600 and fluorescence (Ex./Em. Λ: 485/528 nm) every 20 min for 10h. For end point measurements, fluorescence was measured at T = 0 and once more at T = 150 min.

[2] = tested on: E. coli MC4100; assay: Growth inhibition after 7 hours (EC80/EC50); settings: Escherichia coli, MC4100, 7 h; for EC50: read-out: EC50 MC4100; for IC80: read-out: EC80 MC4100
[3] = tested on: E. coli TOP10F'; assay: Growth inhibition after 7 hours (EC80/EC50); settings: Escherichia coli, 7 h; for EC50: read-out: EC50 TOP10F'; for IC80: read-out: EC80 TOP10F'
[4] = tested on: Rcs stress response in E. coli TOP10F’; assay: Rcs stress kinetics reporter assay; type: cell-based; settings: fold change fluorescence/OD600
Method: Stress was measured in real-time during 10 h following compound treatment by normalizing the fluorescence intensity for growth as indicated by the optical density at 600 nm (OD600) of the culture.
3 Bacterial stress responses of different compound classes as shown in panel (A). (B) Rcs, (C) σE, (D) Cpx, and (E) heat shock. Graphs show fold change in fluorescence normalized for OD600 at EC80 compound concentrations over the course of 10h. Fold change values were determined by comparing OD600‑normalized fluorescence of compound-treated samples to DMSO treated samples. PMBN is used as a CE stress-inducing control at 25 μg/mL, which is the concentration used as a control during the screening campaign. Chloramphenicol at 1 μg/mL is used as a non-stress-inducing antibiotic control. Error bars indicate standard deviation of the average of triplicate samples from at least two independent experiments. (F) Overview of the different stress responses based on the compound class.
as §1

[5] = tested on: SOS stress response in E. coli MC4100; assay: SOS stress reporter assay (PlexA-mNG); type: cell-based; settings: EC80 compound concentrations (Fig. 5A); Fig. S4
Source text: To examine the potential link between DNA gyrase inhibition, SOS stress, and CE stress, we designed a fluorescent SOS reporter plasmid, similar to the reporter plasmids used to study CE stresses.
5 (A) SOS stress induced by different compounds at EC80 concentrations in E. coli MC4100. (B) Rcs stress of different compounds at EC80 concentrations in E. coli MC4100. (C) Rcs stress of the nonquinolone gyrase inhibitor LEI-800 in TOP10F’. (D) Rcs stress induced by mitomycin C in E. coli TOP10F’ and E. coli MC4100. Graphs show fold change in fluorescence adjusted for bacterial growth (OD600). Error bars indicate standard deviation of triplicates. Data are representative of two independent experiments with similar results.

[6] = tested on: Rcs cell envelope stress response in Escherichia coli; assay: Rcs stress reporter assay, HTS format, dose-response curves; type: cell-based; settings: for Emax: read-out: Max. effect (%); for EC50: read-out: pEC50 (converted)
Method: We adapted the reporter assay based on the Rcs stress system for HTS in a screening program at the ELF as the first bacterial phenotypic screen used in this setting. , The assay was performed in a 1536-well format using 25 μM PMBN as a reference (set at 100% effect).
The ELF screened their extensive and diverse library consisting of >500,000 small molecules at a concentration of 10 μM. The assay window (S/B) and Z’ values remained stable (2.0–15.2 and 0.50–0.90, respectively) throughout the screening campaign. The detailed standard screening procedure of the ELF is outlined elsewhere. An overview of the selection process of the screening campaign performed here is outlined in Figure . Initially, 340 compounds with an effect ≥20% of the reference compound PMBN were considered biologically active. Usually, up to 1% of the input library is selected for confirmatory, dose–response, orthogonal and deselection assays. Because the number of biological actives identified in this assay was well below the 1% limit, no orthogonal assays were performed. Instead, all compounds were reordered and tested as dilution series in the Rcs assay to generate dose–response curves (DRCs). Each compound’s pEC50 (−log of EC50, defined as the concentration (mol/L) at which 50% effect is achieved) was determined, and compounds with a pEC50 ≥ 4.7 were selected for further analysis. Next, the compounds were subjected to a mammalian cell-based cytotoxicity assay to exclude toxic compounds that may have a generic effect on membrane integrity. Compounds that reduced mammalian cell viability by 50% were considered cytotoxic. The qualified hit list (QHL) was then generated following triaging based on LC-MS analysis and pEC50 values.
Overnight cultures (ONCs) were prepared by inoculating 5 mL medium from glycerol stocks and incubating the culture for 16–18 h. ONCs were then diluted to an OD600 of 0.05 and grown until an OD600 of 0.3–0.4 was reached.
Assay robustness was confirmed by testing its sensitivity to assay-interfering agents, including colored, aggregating and fluorescent compounds. […] For HTS, bacteria were diluted 50x in prewarmed medium. Fifteen nL of assay compounds (10 μM), DMSO (0.25%), or the reference compound polymyxin B nonapeptide (PMBN) at 25 μM were added to 1536 well plates. Next, 6 μL culture aliquots were added to assay plates containing compounds. Plates were briefly centrifuged for 1 min at 150 x g. Plates were incubated at 37 °C with high humidity and fluorescence (Ex./Em. λ: 485/528 nm) was measured at T = 0 and T = 150 min using a ClarioStar plate reader (BMG Labtech). For data analysis, T = 0 values were subtracted from T = 150 values to calculate Z-score and % effect compared to the reference compound.
Dose–response curves of the 340 initial active compounds were determined following the preparation of serial dilutions (20 nM–20 μM; 7 points, √10). The % effect compared to the reference compound PMBN was calculated and plotted for each compound dilution. The resulting plots were used to calculate pEC50 (-log(EC50), with EC50 being determined as the concentration at which a 50% effect is observed).

[7] = tested on: E. coli 25922; assay: MIC broth microdilution; type: cell-based; settings: Escherichia coli, CAMHB, median of triplicates, read-out: MIC (μg/mL) E. coli 25922
Method: (§2) The antibacterial activity of the compounds was determined by measuring their minimum inhibitory concentration (MIC) values using the broth microdilution method according to the Clinical and Laboratory Standards Institute guidelines (CLSI). Briefly, a single colony from blood agar plates was inoculated into cation-adjusted Mueller-Hinton broth (CAMHB) and grown to OD600 = 0.5. Next, 10^6 CFU/mL were added to a 2-fold serial dilution series of test compounds and incubated at 37 °C, 600 rpm overnight (18–20 h for Gram-negative strains, 20–24 h for Gram-positive strains), after which the plates were visually inspected for bacterial growth. MICs are reported as the median of triplicates.

[8] = tested on: E. coli TOP10F’; assay: MIC broth microdilution; type: cell-based; settings: Escherichia coli; screening strain; CAMHB, median of triplicates; read-out: MIC (μg/mL) E. coli TOP10F’
Method: as §2

[9] = tested on: E. coli BW25113; assay: MIC broth microdilution; type: cell-based; settings: Escherichia coli, CAMHB, median of triplicates, read-out: MIC (μg/mL) E. coli BW25113
Method: as §2

[10] = tested on: K. pneumoniae 13883; assay: MIC broth microdilution; type: cell-based; settings: Klebsiella pneumoniae, clinical isolate, CAMHB, median of triplicates, read-out: MIC (μg/mL) K. pneumoniae 13883
Method: as §2

[11] = tested on: P. aeruginosa 27853; assay: MIC broth microdilution; type: cell-based; settings: Pseudomonas aeruginosa, clinical isolate, CAMHB, median of triplicates, read-out: MIC (μg/mL) P. aeruginosa 27853
Method: as §2

[12] = tested on: A. baumanni 9955; assay: MIC broth microdilution; type: cell-based; settings: Acinetobacter baumannii, clinical isolate, CAMHB, median of triplicates, read-out: MIC (μg/mL) A. baumanni 9955
Method: as §2

[13] = tested on: S. aureus USA 300; assay: MIC broth microdilution; type: cell-based; settings: Staphylococcus aureus, USA300; clinical isolate; CAMHB, median of triplicates; read-out: MIC (μg/mL) S. aureus USA 300
Method: as §2

SMILES	Rcs stress induction in MC4100 wildtype [1]	EC50 [2]	IC80 [2]	EC50 [3]	IC80 [3]	Rcs stress induction in SOS-deficient TOP10F’ [4]	SOS stress induction in MC4100 [5]	Emax [6]	EC50 [6]	MIC [7]	MIC [8]	MIC [9]	MIC [10]	MIC [11]	MIC [12]	MIC [13]
O=S(=O)(NC[C@@H]1CC[C@H](c2ccc(-c3cccnc3)cc2)N1)c1cccc2cnccc12 [LEI-800, reference compound]	Neither compound induced Rcs stress	2 µg/mL (≈ 4.5 µM)	8 µg/mL (≈ 18 µM)	1 µg/mL (≈ 2.25 µM)	8 µg/mL (≈ 18 µM)	induced high levels of Rcs stress similar to CluB compounds	did not induce strong fluorescence	–	–	–	–	–	–	–	–	–
CCc1cc(-c2c(F)cc3c(=O)c(C(=O)O)cn4c3c2OC[C@@H]4C)cc(C)n1 [A3]	–	0.25 µg/mL (≈ 0.654 µM)	1 µg/mL (≈ 2.62 µM)	0.0078 µg/mL (≈ 0.0204 µM)	0.031 µg/mL (≈ 0.0811 µM)	–	–	18.6%	191 nM	0.125 µg/mL (≈ 0.327 µM)	< 0.03 µg/mL	0.125 µg/mL (≈ 0.327 µM)	1 µg/mL (≈ 2.62 µM)	8 µg/mL (≈ 20.9 µM)	0.5 µg/mL (≈ 1.31 µM)	0.5 µg/mL (≈ 1.31 µM)
COC1CN(CCn2c(=O)ccc3ncc(F)cc32)CCC1NCc1cc(F)c2c(c1)NC(=O)CO2 (centres unmarked) [B2]	–	2 µg/mL (≈ 4 µM)	16 µg/mL (≈ 32 µM)	< 0.063 µg/mL	2 µg/mL (≈ 4 µM)	–	–	53.2%	631 nM	2 µg/mL (≈ 4 µM)	0.06 µg/mL (≈ 0.12 µM)	1 µg/mL (≈ 2 µM)	4 µg/mL (≈ 8.01 µM)	8 µg/mL (≈ 16 µM)	1 µg/mL (≈ 2 µM)	0.25 µg/mL (≈ 0.5 µM)
CN(C)c1ccc(-c2nc(Cl)nc3cccnc23)cc1 [S2]	–	–	–	–	–	–	–	87.9%	7760 nM	–	–	–	–	–	–	–
